From patent US20040034104A1, “2,2-Diphenylbutanamide derivatives and medicines containing the same” (priority 2000, published 2004)

tested on: not given; assay: not given; settings: not given

| Structure (SMILES) | melting point [°C] |
| --- | --- |
| CN(C)C(=O)C(CCN1CCC(c2ccccc2OC(C)(C)C(=O)O)CC1)(c1ccccc1)c1ccccc1 | 156 to 158 |
| O=C(O)COc1ccccc1C1CCN(CCC(C(=O)N2CCCC2)(c2ccccc2)c2ccccc2)CC1 | 239 |
| CN(C)C(=O)C(CCN1CCC(c2ccccc2OCC(=O)O)CC1)(c1ccccc1)c1ccccc1 | 202 |
| CCOC(=O)COc1ccccc1C1=CCN(CCC(C(=O)N(C)C)(c2ccccc2)c2ccccc2)CC1 | 147 |
| CN(C)C(=O)C(CCN1CC=C(c2ccccc2OCC(=O)O)CC1)(c1ccccc1)c1ccccc1 | 135 |

tested on: opioid receptor (μ-opioid); assay: Opioid receptor agonist activity in guinea pig ileum longitudinal muscle specimens; settings: agonist activity relative to DAMGO (=1.0); ileum longitudinal muscle specimens with Auerbach's plexus; method of Oka et al.
Description: Hartley male guinea pigs (body weight: about 500 g) wer employed. The ileum (15-30 cm) was removed from the ileocecum of each guinea pig, to thereby prepare longitudinal muscle specimens having Auerbach's plexus. Opioid receptor activity of the test drugs was measured through a method proposed by Oka et al. (Eur. J. Pharmacol., 77; 137-141, 1982). Agonist activity is represented by the efficacy relative to the activity of DAMGO ([D-Ala^2, N-MePhe^4, Gly^5-ol]-enkephalin), which is a selective μ-opioid agonist.

| Structure (SMILES) | Relative potency |
| --- | --- |
| CN(C)C(=O)C(CCN1CCN(c2ccccc2O)CC1)(c1ccccc1)c1ccccc1 [Compound No. 36, 4-[4-(2-Hydroxyphenyl)piperazin-1-yl]-N,N-dimethyl-2,2-diphenylbutanamide] | 10 |
| CN(C)C(=O)C(CCN1CCN(c2ccccc2OCC(=O)O)CC1)(c1ccccc1)c1ccccc1 [compound 45] | 20 |
| CN(C)C(=O)C(CCN1CCC(c2ccccc2OCCO)CC1)(c1ccccc1)c1ccccc1 [Compound No. 69, 4-[4-[2-(2-hydroxyethoxy)phenyl]piperidin-1-yl]-N,N-dimethyl-2,2-diphenylbutanamide] | 10 |
| C[C@@H](NC(=O)[C@@H](N)Cc1ccc(O)cc1)C(=O)NCC(=O)N(C)[C@@H](Cc1ccccc1)C(=O)NCCO [DAMGO, [D-Ala^2, N-MePhe^4, Gly^5-ol]-enkephalin, reference compound] | 1.0 |
| CN(C)C(=O)C(CCN1CCN(c2ccccc2OCCO)CC1)(c1ccccc1)c1ccccc1 [Compound No. 43, 4-[4-[2-(2-hydroxyethoxy)phenyl]piperazin-1-yl]-N,N-dimethyl-2,2-diphenylbutanamide] | 20 |
